Activity calls are given as the source filed them. No cut-off for these calls is given here.
Experiments:
[1] = Metal chelating activity assessed as compound-Fe3+ complex formation after 30 mins by UV-Vis spectrophotometry based Job's plot
PC-12 [2] = assay: Neuroprotective activity against H2O2-induced apoptosis in rat PC12 cells assessed as early apoptosis cells level at 12.5 uM after 24 hrs by Annexin V/FITC/propidium iodide staining-based flow cytometry (reference value: 1.8%); assay type: functional
PC-12 [3] = assay: Neuroprotective activity against H2O2-induced apoptosis in rat PC12 cells assessed as necrosis cells level at 12.5 uM after 24 hrs by Annexin V/FITC/propidium iodide staining-based flow cytometry (reference value: 0.1%); assay type: functional
PC-12 [4] = assay: Neuroprotective activity against H2O2-induced apoptosis in rat PC12 cells assessed as viable cells level at 6.25 uM after 24 hrs by Annexin V/FITC/propidium iodide staining-based flow cytometry (reference value: 96.2%); assay type: functional
[5] = target: Amyloid-beta precursor protein (Homo sapiens) (UniProt P05067); assay: Inhibition of self-induced aggregation of amyloid beta (1 to 42 residues) (unknown origin) at 25 uM incubated for 48 hrs by Thioflavin T fluorescence assay relative to control
Sequence of Amyloid-beta precursor protein (Homo sapiens) (P05067 whole entry, the tested form may be a part): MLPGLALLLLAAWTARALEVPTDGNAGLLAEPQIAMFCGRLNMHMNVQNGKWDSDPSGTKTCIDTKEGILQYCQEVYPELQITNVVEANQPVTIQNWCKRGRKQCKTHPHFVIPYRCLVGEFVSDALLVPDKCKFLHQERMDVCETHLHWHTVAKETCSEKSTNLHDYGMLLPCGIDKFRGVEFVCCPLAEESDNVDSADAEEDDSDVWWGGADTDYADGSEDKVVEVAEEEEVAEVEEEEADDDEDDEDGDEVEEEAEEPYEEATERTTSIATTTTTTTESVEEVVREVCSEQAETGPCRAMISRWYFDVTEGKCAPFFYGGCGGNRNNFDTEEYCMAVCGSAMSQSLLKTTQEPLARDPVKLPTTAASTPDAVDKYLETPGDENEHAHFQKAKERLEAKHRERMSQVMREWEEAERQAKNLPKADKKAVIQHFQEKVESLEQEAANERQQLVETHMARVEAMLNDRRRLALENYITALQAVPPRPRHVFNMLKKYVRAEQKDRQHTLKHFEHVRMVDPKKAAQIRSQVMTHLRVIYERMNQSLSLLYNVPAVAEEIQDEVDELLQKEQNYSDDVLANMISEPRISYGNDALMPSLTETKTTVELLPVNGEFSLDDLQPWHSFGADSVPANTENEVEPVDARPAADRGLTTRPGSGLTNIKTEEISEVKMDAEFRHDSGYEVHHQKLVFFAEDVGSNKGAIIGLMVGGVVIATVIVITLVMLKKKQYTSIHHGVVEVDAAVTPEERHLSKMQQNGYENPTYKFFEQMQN

PC-12 [6] = assay: Neuroprotective activity against H2O2-induced apoptosis in rat PC12 cells assessed as necrosis cells level at 25 uM after 24 hrs by Annexin V/FITC/propidium iodide staining-based flow cytometry (reference value: 0.1%); assay type: functional
PC-12 [7] = assay: Neuroprotective activity against H2O2-induced apoptosis in rat PC12 cells assessed as early apoptosis cells level at 6.25 uM after 24 hrs by Annexin V/FITC/propidium iodide staining-based flow cytometry (reference value: 1.8%); assay type: functional
PC-12 [8] = assay: Neuroprotective activity against H2O2-induced cytotoxicity in rat PC12 cells assessed as increase in cell viability at 6.25 to 25 uM preincubated for 24 hrs followed by H2O2 addition and measured after 24 hrs by MTT assay; assay type: functional, cell-based
PC-12 [9] = assay: Neuroprotective activity against H2O2-induced apoptosis in rat PC12 cells assessed as viable cells level at 12.5 uM after 24 hrs by Annexin V/FITC/propidium iodide staining-based flow cytometry (reference value: 96.2%); assay type: functional
PC-12 [10] = assay: Neuroprotective activity against H2O2-induced apoptosis in rat PC12 cells assessed as early apoptosis cells level at 25 uM after 24 hrs by Annexin V/FITC/propidium iodide staining-based flow cytometry (reference value: 1.8%); assay type: functional
in vitro = assay: in vitro; design: dose or concentration left out as unconfirmed; conditions: PAMPA
Description: Permeability of the compound at 100 mg/ml after 16 hrs by BBB-PAMPA method

PC-12 [11] = assay: Neuroprotective activity against H2O2-induced apoptosis in rat PC12 cells assessed as apoptotic cells at 25 uM after 24 hrs by Annexin V/FITC/propidium iodide staining-based flow cytometry (reference value: 52.3%); assay type: functional
PC-12 [12] = assay: Neuroprotective activity against 6-OHDA-induced toxicity in rat PC12 cells assessed as increase in cell viability at 10 to 25 uM pretreated for 24 hrs followed by 6-OHDA challenge measured after 24 hrs by MTT assay; assay type: functional
BV-2 = assay: Neuroprotective activity against LPS-induced inflammation in mouse BV2 cells assessed as inhibition of LPS-induced NO production at 10 to 25 uM after 24 hrs in presence of LPS by Griess reaction based assay relative to resveratrol; assay type: functional, cell-based
[13] = Metal chelating activity assessed as compound-Cu2+ complex formation after 30 mins by UV-Vis spectrophotometry based Job's plot
PC-12 [14] = assay: Neuroprotective activity against H2O2-induced apoptosis in rat PC12 cells assessed as late apoptosis cells level at 50 uM after 24 hrs by Annexin V/FITC/propidium iodide staining-based flow cytometry (reference value: 1.9%); assay type: functional
[15] = Metal chelating activity assessed as compound-Fe2+ complex formation after 30 mins by UV-Vis spectrophotometry based Job's plot
PC-12 [16] = assay: Neuroprotective activity against H2O2-induced apoptosis in rat PC12 cells assessed as necrosis cells level at 50 uM after 24 hrs by Annexin V/FITC/propidium iodide staining-based flow cytometry (reference value: 0.1%); assay type: functional
[17] = target: T1, Amine oxidase [flavin-containing] A (Homo sapiens, UniProt P21397); assay: Inhibition of human MAO-A at 200 uM using p-tyramine as substrate preincubated for 15 mins followed by substrate addition measured after 20 mins by fluorescence-based Amplex Red MAO assay
T1 sequence (P21397 whole entry): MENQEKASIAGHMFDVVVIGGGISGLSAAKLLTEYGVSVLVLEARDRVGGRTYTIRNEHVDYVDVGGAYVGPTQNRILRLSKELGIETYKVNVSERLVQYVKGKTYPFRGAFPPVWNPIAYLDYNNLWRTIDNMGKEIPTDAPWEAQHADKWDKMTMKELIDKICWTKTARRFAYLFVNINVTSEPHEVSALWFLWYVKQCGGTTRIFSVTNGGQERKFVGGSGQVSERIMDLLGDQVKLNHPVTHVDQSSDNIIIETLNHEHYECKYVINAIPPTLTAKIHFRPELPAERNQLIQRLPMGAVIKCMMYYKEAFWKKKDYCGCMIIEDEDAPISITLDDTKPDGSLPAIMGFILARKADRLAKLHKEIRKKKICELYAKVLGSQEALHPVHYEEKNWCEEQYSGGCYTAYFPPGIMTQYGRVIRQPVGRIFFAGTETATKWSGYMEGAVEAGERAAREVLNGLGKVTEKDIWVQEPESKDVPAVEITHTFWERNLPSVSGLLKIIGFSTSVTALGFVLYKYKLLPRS

PC-12 [18] = assay: Neuroprotective activity against H2O2-induced apoptosis in rat PC12 cells assessed as late apoptosis cells level at 12.5 uM after 24 hrs by Annexin V/FITC/propidium iodide staining-based flow cytometry (reference value: 1.9%); assay type: functional
[19] = Antioxidant activity assessed as ABTS radical scavenging activity at 25 uM after 6 mins; assay type: functional
PC-12 [20] = assay: Neuroprotective activity against H2O2-induced apoptosis in rat PC12 cells assessed as early apoptosis cells level at 50 uM after 24 hrs by Annexin V/FITC/propidium iodide staining-based flow cytometry (reference value: 1.8%); assay type: functional
PC-12 [21] = assay: Cytotoxicity against rat PC12 cells at 25 uM after 24 hrs by MTT assay; assay type: cell-based; conditions: pc-12, 24 h

- log K [1]: 6.19
- inhibition [5]: 91.3%
- Papp at 16 h (in vitro): 5.75 ×10⁻⁶ cm/s
- log K [13]: 8.01
- log K [15]: 6.3
- inhibition (INH) [17]: Not Active
Compound: Oc1ccc(/C=N/c2ccc(OCc3ccccc3)cc2)c(O)c1O
- Activity (PC-12 [2]): 25.7%
- Activity (PC-12 [3]): 0.4%
- Activity (PC-12 [4]): 60.6%
- Activity (PC-12 [6]): 1.1%
- Activity (PC-12 [7]): 26.7%
- Activity (PC-12 [8]): Active
- Activity (PC-12 [9]): 69.8%
- Activity (PC-12 [10]): 8.5%
- Activity (PC-12 [11]): 11.2%
- Activity (PC-12 [12]): 65.9 - 75.4%
- Activity (BV-2): Active
- Activity (PC-12 [14]): 2.3%
- Activity (PC-12 [16]): 3%
- Activity (PC-12 [18]): 4.2%
- Activity (umolequiv/umol) [19]: 0.67
- Activity (PC-12 [20]): 3.7%
- Activity (PC-12 [21]): Non-Toxic

— ChEMBL document CHEMBL4177594, “Design, synthesis, and evaluation of salicyladimine derivatives as multitarget-directed ligands against Alzheimer's disease” (Bioorg Med Chem, 2017)
